Target: T1, AKT1-E17K (Homo sapiens, UniProt P31749, E17K)
T1 construct: host or cells: HEK-293 (ATCC CRL-1573)
Experiment: NanoBRET Target Engagement (TE) Assay
Type: cell-based
Description: The NanoBRET™ Target Engagement (TE) Intracellular Kinase Assays are based on the NanoBRET™ System (Promega Corporation), an energy transfer technique designed to measure molecular proximity in living cells. The NanoBRET™ TE Assays measure the apparent affinity of test compounds by competitive displacement of the NanoBRET™ tracer compound, which is a cell permeable molecule engineered to be reversibly bound to a NanoLuc® luciferase-kinase fusion expressed in cells. For compound screening, when a test compound binds to the selected kinase, the BRET signal is attenuated. […] All cells were evaluated for viability prior to transfection and optimization of the transfection was done prior to experimentation. […] Following transfection, cells were washed and resuspended in Opti-MEM. NanoBRET assays were performed in white, 384-well plates (Corning) at a density of […]. All example compounds were prepared as concentrated stock solutions in DMSO (Sigma-Aldrich). Compounds are dissolved in DMSO to make 10 mM stock solution. […] A Labcyte ECHO 550 compound dispenser was used to facilitate compound transfer directly to cells. Cells were equilibrated for 2 hr with energy transfer probes and example compound prior to BRET measurements. […] For target engagement analysis, the energy transfer probes were added to the cells at concentrations optimized for the target in question (AKT E17K). Following compound incubation, NanoBRET NanoGlo Substrate (Promega Cat #N157D) and Extracellular Nanoluc Inhibitor (Promega Cat #N235C) was added according to the manufacturer's recommended protocol, and luminescence was measured on Envision Reader (Perkin Elmer) Multimode Luminometer equipped with 450 nmBPfilter (donor) and 600 nmLPfilter (acceptor), using 0.5 s integration time. Milli-BRET units (mBU) are calculated by multiplying the raw BRET values by 1000. Apparent tracer affinity values (EC50) were determined using the sigmoidal dose-response (variable slope). Competitive displacement data were then plotted and data were fit to determine the EC50 value for each example compound.

T1 sequence (P31749 whole entry E17K): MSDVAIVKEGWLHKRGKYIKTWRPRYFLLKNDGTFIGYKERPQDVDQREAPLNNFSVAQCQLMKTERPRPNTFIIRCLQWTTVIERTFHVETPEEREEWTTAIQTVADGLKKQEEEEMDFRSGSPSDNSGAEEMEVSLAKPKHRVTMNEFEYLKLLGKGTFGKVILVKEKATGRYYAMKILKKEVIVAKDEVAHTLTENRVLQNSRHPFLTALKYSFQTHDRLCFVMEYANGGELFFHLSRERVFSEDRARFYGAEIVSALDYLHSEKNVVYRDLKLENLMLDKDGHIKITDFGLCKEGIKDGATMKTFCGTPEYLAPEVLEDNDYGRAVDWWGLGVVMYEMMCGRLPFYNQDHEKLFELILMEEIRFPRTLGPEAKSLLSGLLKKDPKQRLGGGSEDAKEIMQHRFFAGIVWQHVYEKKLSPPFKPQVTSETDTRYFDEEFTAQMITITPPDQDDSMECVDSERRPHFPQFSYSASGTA

| IC50 | Compound |
| --- | --- |
| 0.06 to 0.6 µM | N#Cc1ccc(-c2ccc3nc(-c4cccnc4N)n(-c4ccc(CN5CCN(C(=O)c6ccc(O)c(C=O)c6)CC5)cc4)c3n2)cc1 [Example 38, 4-(2-(2-Aminopyridin-3-yl)-3-(4-((4-(3-formyl-4-hydroxybenzoyl)piperazin-1-yl)methyl)phenyl)-3H-imidazo[4,5-b]pyridin-5-yl)benzonitrile] |
| 0.06 to 0.6 µM | Nc1ncccc1-c1nc2ccc(-c3cccc(Cl)c3)nc2n1-c1ccc(CN2CCN(C(=O)c3ccc(C=O)c(O)c3)CC2)cc1 [Example 43, 4-(4-(4-(2-(2-Aminopyridin-3-yl)-5-(3-chlorophenyl)-3H-imidazo[4,5-b]pyridin-3-yl)benzyl)piperazine-1-carbonyl)-2-hydroxybenzaldehyde] |
| 0.06 to 0.6 µM | Nc1ncccc1-c1nc2cccnc2n1-c1ccc(CNC(=O)c2ccc(O)c(C=O)c2)cc1 [Example 2, N-(4-(2-(2-Aminopyridin-3-yl)-3H-imidazo[4,5-b]pyridin-3-yl)benzyl)-3-formyl-4-hydroxybenzamide] |
| > 0.6 µM | Nc1ncccc1-c1nc2ccc(-c3ccccc3F)nc2n1-c1ccc(CN2CCN(C(=O)c3ccc(C=O)c(O)c3)CC2)cc1 [Example 142, 4-(4-(4-(2-(2-Aminopyridin-3-yl)-5-(2-fluorophenyl)-3H-imidazo[4,5-b]pyridin-3-yl)benzyl)piperazine-1-carbonyl)-2-hydroxybenzaldehyde] |
| 0.06 to 0.6 µM | Nc1ncccc1-c1nc2ccc(-c3ccccc3)nc2n1-c1ccc(CN2CCC3(CC2)CCN(C(=O)c2ccc(C=O)c(O)c2)CC3)cc1 [Example 152, 4-(9-(4-(2-(2-aminopyridin-3-yl)-5-phenyl-3H-imidazo[4,5-b]pyridin-3-yl)benzyl)-3,9-diazaspiro[5.5]undecane-3-carbonyl)-2-hydroxybenzaldehyde] |
| 0.06 to 0.6 µM | Nc1ncccc1-c1nc2ccc(-c3ccccc3)nc2n1-c1ccc(CN2CCC3(CC2)CN(C(=O)c2ccc(O)c(C=O)c2)C3)cc1 [Example 67, 5-(7-(4-(2-(2-Aminopyridin-3-yl)-5-phenyl-3H-imidazo[4,5-b]pyridin-3-yl)benzyl)-2,7-diazaspiro[3.5]nonane-2-carbonyl)-2-hydroxybenzaldehyde] |
| > 0.6 µM | CN(Cc1ccc(-n2c(-c3cccnc3N)nc3ccc(-c4ccccc4)nc32)cc1)c1ccc(O)c(C=O)c1 [Example 18, 5-((4-(2-(2-Aminopyridin-3-yl)-5-phenyl-3H-imidazo[4,5-b]pyridin-3-yl)benzyl)(methyl)amino)-2-hydroxybenzaldehyde] |
| 0.06 to 0.6 µM | Nc1ncccc1-c1nc2ccc(-c3ccccc3)nc2n1-c1ccc(CN2CC3(CCN(C(=O)c4ccc(C=O)c(O)c4)C3)C2)cc1 [Example 93, 4-(2-(4-(2-(2-Aminopyridin-3-yl)-5-phenyl-3H-imidazo[4,5-b]pyridin-3-yl)benzyl)-2,6-diazaspiro[3.4]octane-6-carbonyl)-2-hydroxybenzaldehyde] |

The remaining lines, values behind:

| Compound | IC50 |
| --- | --- |
| CN(C(=O)c1ccc(C=O)c(O)c1)C1CCN(Cc2ccc(-n3c(-c4cccnc4N)nc4ccc(-c5ccccc5)nc43)cc2)CC1 [Example 60, N-(1-(4-(2-(2-Aminopyridin-3-yl)-5-phenyl-3H-imidazo[4,5-b]pyridin-3-yl)benzyl)piperidin-4-yl)-4-formyl-3-hydroxy-N-methylbenzamide] | 0.06 to 0.6 µM |
| Nc1ncccc1-c1nc2ccc(-c3ccccc3)nc2n1-c1ccc(CN2CC(NC(=O)c3ccc(C=O)c(O)c3)C2)cc1 [Example 65, N-(1-(4-(2-(2-Aminopyridin-3-yl)-5-phenyl-3H-imidazo[4,5-h]pyridin-3-yl)benzyl)azetidin-3-yl)-4-formyl-3-hydroxybenzamide] | 0.015 to 0.06 µM |
| C[C@H]1CN(Cc2ccc(-n3c(-c4cccnc4N)nc4ccc(-c5ccccc5)nc43)cc2)CCN1c1ccc(C=O)c(O)c1 [Example 107, (S)-4-(4-(4-(2-(2-aminopyridin-3-yl)-5-phenyl-3H-imidazo[4,5-b]pyridin-3-yl)benzyl)-2-methylpiperazin-1-yl)-2-hydroxybenzaldehyde] | 0.06 to 0.6 µM |
| Nc1ncccc1-c1nc2ccc(-c3ccccc3)nc2n1-c1ccc(CN2CCCCC(NC(=O)c3ccc(O)c(C=O)c3)C2)cc1 (stereo not drawn) [Example 117, N-(1-(4-(2-(2-Aminopyridin-3-yl)-5-phenyl-3H-imidazo[4,5-b]pyridin-3-yl)benzyl)azepan-3-yl)-3-formyl-4-hydroxybenzamide] | > 0.6 µM |
| Nc1ncccc1-c1nc2ccc(-c3ccc(Cl)cc3)nc2n1-c1ccc(CN2CCN(C(=O)c3ccc(C=O)c(O)c3)CC2)cc1 [Example 148, 4-(4-(4-(2-(2-aminopyridin-3-yl)-5-(4-chlorophenyl)-3H-imidazo[4,5-b]pyridin-3-yl)benzyl)piperazine-1-carbonyl)-2-hydroxybenzaldehyde] | > 0.6 µM |
| Nc1ncccc1-c1nc2ccc(N3CCOCC3)nc2n1-c1ccc(CN2CCN(C(=O)c3ccc(C=O)c(O)c3)CC2)cc1 [Example 33, 4-(4-(4-(2-(2-Aminopyridin-3-yl)-5-morpholino-3H-imidazo[4,5-b]pyridin-3-yl)benzyl)piperazine-1-carbonyl)-2-hydroxybenzaldehyde] | > 0.6 µM |
| Nc1ncccc1-c1nc2ccc(-c3ccccc3)nc2n1-c1ccc(CN2CCC(NC(=O)c3cccc(C=O)c3O)CC2)cc1 [Example 49, N-(1-(4-(2-(2-aminopyridin-3-yl)-5-phenyl-3H-imidazo[4,5-b]pyridin-3-yl)benzyl)piperidin-4-yl)-3-formyl-2-hydroxybenzamide] | 0.015 to 0.06 µM |
| Nc1ncccc1-c1nc2ccc(C3=CCCCC3)nc2n1-c1ccc(CN2CCN(C(=O)c3ccc(O)c(C=O)c3)CC2)cc1 [Example 150, 5-(4-(4-(2-(2-aminopyridin-3-yl)-5-(cyclohex-1-en-1-yl)-3H-imidazo[4,5-b]pyridin-3-yl)benzyl)piperazine-1-carbonyl)-2-hydroxybenzaldehyde] | 0.06 to 0.6 µM |
| Nc1ncccc1-c1nc2ccc(-c3ccccc3)nc2n1-c1ccc(CN2CC[C@@H](NC(=O)c3ccc(C=O)c(O)c3)C2)cc1 [Example 64, (R)—N-(1-(4-(2-(2-Aminopyridin-3-yl)-5-phenyl-3H-imidazo[4,5-b]pyridin-3-yl)benzyl)pyrrolidin-3-yl)-4-formyl-3-hydroxybenzamide] | 0.06 to 0.6 µM |
| Nc1ncccc1-c1nc2ccc(-c3ccccc3)nc2n1-c1ccc(CN2C[C@@H]3CN(C(=O)c4ccc(C=O)c(O)c4)C[C@@H]3C2)cc1 [Example 132, 4-((3aR,6aS)-5-(4-(2-(2-Aminopyridin-3-yl)-5-phenyl-3H-imidazo[4,5-b]pyridin-3-yl)benzyl)octahydropyrrolo[3,4-c]pyrrole-2-carbonyl)-2-hydroxybenzaldehyde] | 0.06 to 0.6 µM |
| Nc1ncccc1-c1nc2ccc(N3CCOCC3)nc2n1-c1ccc(CN2CCC(NC(=O)c3ccc(C=O)c(O)c3)CC2)cc1 [Example 53, N-(1-(4-(2-(2-Aminopyridin-3-yl)-5-morpholino-3H-imidazo[4,5-b]pyridin-3-yl)benzyl)piperidin-4-yl)-4-formyl-3-hydroxybenzamide] | 0.06 to 0.6 µM |
| Nc1ncccc1-c1nc2ccc(-c3ccccc3)nc2n1-c1ccc(CN2CC3(C2)CN(C(=O)c2ccc(O)c(C=O)c2)C3)cc1 [Example 62, 5-(6-(4-(2-(2-Aminopyridin-3-yl)-5-phenyl-3H-imidazo[4,5-b]pyridin-3-yl)benzyl)-2,6-diazaspiro[3.3]heptane-2-carbonyl)-2-hydroxybenzaldehyde] | < 0.015 µM |
| Nc1ncccc1-c1nc2ccc(-c3cccc(F)c3)nc2n1-c1ccc(CN2CCN(C(=O)c3ccc(C=O)c(O)c3)CC2)cc1 [Example 41, 4-(4-(4-(2-(2-Aminopyridin-3-yl)-5-(3-fluorophenyl)-3H-imidazo[4,5-b]pyridin-3-yl)benzyl)piperazine-1-carbonyl)-2-hydroxybenzaldehyde] | 0.06 to 0.6 µM |
| Nc1ncccc1-c1nc2ccc(-c3cccc(=O)[nH]3)nc2n1-c1ccc(CN2CCN(C(=O)c3ccc(O)c(C=O)c3)CC2)cc1 [Example 45, 5-(4-(4-(2-(2-Aminopyridin-3-yl)-5-(6-oxo-1,6-dihydropyridin-2-yl)-3H-imidazo[4,5-b]pyridin-3-yl)benzyl)piperazine-1-carbonyl)-2-hydroxybenzaldehyde] | > 0.6 µM |
| Nc1ncccc1-c1nc2ccc(-c3ccccc3)nc2n1-c1ccc(CN2CCN(c3cc(O)c(C=O)c(F)c3)CC2)cc1 [Example 24, 4-(4-(4-(2-(2-Aminopyridin-3-yl)-5-phenyl-3H-imidazo[4,5-b]pyridin-3-yl)benzyl)piperazin-1-yl)-2-fluoro-6-hydroxybenzaldehyde] | 0.06 to 0.6 µM |
| Nc1ncccc1-c1nc2ccc(-c3ccccc3)nc2n1-c1ccc(CN2CC[C@]3(CCN(c4ccc(C=O)c(O)c4)C3)C2)cc1 [Example 103, (S)-4-(7-(4-(2-(2-Aminopyridin-3-yl)-5-phenyl-3H-imidazo[4,5-b]pyridin-3-yl)benzyl)-2,7-diazaspiro[4.4]nonan-2-yl)-2-hydroxybenzaldehyde] | 0.06 to 0.6 µM |

Source: patent US20260365647A1, “AKT1 MODULATORS” (Alterome Therapeutics, Inc., priority 2022, published 2026)
